The term Kd denotes a measure of binding affinity in units of concentration. As usually defined, the half-life is the time in which the quantity being followed falls by half. A higher half-life goes with slow decline.

The values below come from patent US11364280B2, “Method for blocking stress-induced tumor progression” (Taipei Veterans General Hospital, priority 2018, dated 2022).

The test system of data set [1] is MSI1/AGO2 downstream mRNA. Nature of the data set: qRT-PCR of downstream mRNA targets of MSI1-AGO2, hypoxia versus normoxia. The conditions noted are these: six targets. The class given is cell-based, human. The procedure: FIG. 4A provides a schematic illustrating the full-length and C-terminal (C-term) fragment of human MSI1. The construct of MSI1 C-term was sub-cloned into p-3×Flag-Myc-CMV expression vector. […] Quantification of the fold changes of binding signals was performed by normalizing IP signals to IgG-precipitated controls. The peaks indicated MSI1 or AGO2 palindromic-binding sequence. […] Purified total RNA was subjected to RT-PCR using primers specific for NF2, TP53, CDKN1A, CCND1, CDK4, and HELLS. The mRNA levels under hypoxia were normalized with that under normoxia and presented as relative fold changes in the chart. […] The relative fold change of the number of viable cells in each day was presented in the graph. […] Xenograft tumor size was monitored from day 2 after injection of Flag-control or Flag-C-term. […] Tumor size was then monitored for 22 days. The expression of MIS1-C-term in the xenograft tumor tissue was assessed by Western blot. […] […]
Oligonucleotide specificity was computer tested (BLAST, National Center for Biotechnology Information. Bethesda. Md., USA) by homology search with the human genome and later confirmed by melting curve analysis. […] Signals were detected using 7900HT Fast Real-time PCR system (Applied Biosystems, Foster City, Calif., USA). […]

The target in data set [2] is T1, His-tagged AGO2 recombinant protein (Homo sapiens, UniProt Q9UKV8).
T1 construct: made in house; host or cells: High Five insect cells (baculovirus, Bac-To-Bac; virus made in Sf9)
Nature of the data set: Affinity measurement by surface plasmon resonance (SPR). The conditions noted are these: AGO2 immobilized on CM5 chip; peptide serial dilution 625 to 10000 nM; Langmuir 1:1 model; read-out: equilibrium dissociation constant (KD). Format: binding. The procedure: (§1) The relative orientation of peptide-binding site and AGO2 pocket was depicted. […] The recombinant AGO2 protein was immobilized on CM5 chip and incubated with a serial dilution (from 625 to 10000 nM) of the two peptides, respectively. The association and dissociation between TAT-11, TAT-26 and immobilized AGO2 were tested by SPR (top). The association rate constant (Ka), dissociation rate constant (Kd), and equilibrium dissociation constant (KD) were calculated and presented in the chart (bottom).
A Biacore T200 (GE Healthcare) was used to study the binding affinity of the TAT-11 and TAT-26 peptides with recombinant His-tagged AGO2 protein. The recombinant His-AGO2 and TAT peptides were diluted in HBS-P buffer ([…], 150 mM NaCl and 0.005% P20, pH 7.4). To evaluate the binding affinity, recombinant His-AGO2 was immobilized on a CM5 sensor chip (GE Healthcare, BR100012) via amine coupling (˜7000 RU) for 3600 sec at rate of 5 μl/mins, followed by dissociation for 600 s. After injection of each peptide, the surface was regenerated with an injection of 10 mM NaOH. All sensorgrams were double referenced by subtracting the surface effect from the control flow […] and the buffer effect form the blank buffer. The kinetic values Ka, Kd and KD were obtained using Biacore […] Evaluation Software (GE healthcare) assuming the Langmuir 1:1 binding model.

The target in data set [3] is T2, MSI1/AGO2 interaction (Homo sapiens, UniProt Q9UKV8). Description: Split Gaussia luciferase reconstitution reporter assay. More on the design: expressed in transfected cells; lysates used for the in vitro read-out. The conditions noted are these: 10 μM peptide; in vitro and in vivo. Format: cell-based. The procedure:
as §1
FIG. 14A provides schematic presentation of the constructs of full-length, C-terminus, and N-terminus of MSI1 as well as wild-type AGO2 for purifying recombinant proteins. FIG. 14B provides pull-down assay with recombinant MSI1 and AGO2 proteins showing that the C-terminus of MSI1 is essential for the direct MSI1/AGO2 interaction. […] FIG. 14D provides the schematic illustration of the split luciferase reconstitution imaging system to real-time monitor the interaction between MSI1 and AGO2.
To use Gaussia luciferase (Gluc) for detecting protein-protein interaction, we split Gaussia luciferase into NGluc (N-terminal Gluc, 106 a.a.) and CGluc (C-terminal Glue. 79 a.a.)^53,54. The two fragments were amplified by polymerase chain reaction (PCR) and subjected to construct fusion protein with MSI1 and AGO2 by the pcDNA 3.1 and pCMV backbone, respectively. Each fusion protein contains a flexible linker (GGGGS)2 between the protein and polypeptides of split luciferase^55,56. Stable cell lines were obtained by stable transfection of both fusion protein expressive plasmids in 05 MG GBM cell line with Hygromycin B (Sigma Aldrich Co., St. Louis, […]., USA) and G418 sulfate (Merck Co., Berlin, Germany). […] The bioluminescent signals were acquired by Wallac 1420 Victor^2 Microplate Reader (Perkin Elmer, Waltham. Mass., USA) equipped with auto-dispenser to avoid rapid decay of GLuc. […] The region of interests (ROI) was automatically chosen by the Living Image 4.2 software and quantified as photon flux in a certain area per second (photons/s/cm^2).
Background: Reporter assays use an easily measured gene product as a stand-in for the process of interest.

For the next data set, the system named is 05 MG cells. Nature of the data set: Cellular uptake of fluorescein labeled peptides, fluorescence read by ELISA reader.
The target in data set [4] is T2, MSI1/AGO2 interaction. Nature of the data set: Co-immunoprecipitation of endogenous MSI1 and AGO2 under hypoxia. Also on record: endogenous in cells. The following applies: 10 μM peptide, hypoxic condition. The class given is cell-based.
The nature of another data set: in vitro. The conditions noted are these: human.
For data set [5], the system named is MSI1 translocation into the cytosol in 05 MG cells. Description: MSI1 subcellular translocation (immunostaining, fractionation immunoblot). The class given is cell-based, human. The following applies: LMB 10 ng/mL, 2 h pre-treatment; hypoxic and cisplatin treatment. The procedure:
Magnifying power: 200× (top) and 600× (bottom). Quantitation of cells expressing cytoplasmic or nuclear MSI1 is shown in the bar graph on the right. FIG. 1B 05 MG cells pre-treated with or without nuclear export inhibitor leptomycinB (LMB) (10 ng/mL, 2 h) under normoxia or hypoxia conditions for 24 hr were subjected to anti-MSI1 (green) immunostaining and DAPI (blue) nuclear counterstaining. Images were acquired from Carl Zeiss confocal microscope system. The intensity of green fluorescence in nuclear and cytosol was quantified and shown as relative percentage in the graph at the right. […] FIG. 1D provides a schematic showing the mutation sites in the NLS (orange) and NES (red) of human MSI1. All constructs were sub-cloned into p-3×Flag-Myc-CMV expression vector. […] Images were acquired from Carl Zeiss confocal microscope system, and the quantification of fluorescent intensity in the nuclear and cytosolic compartments was shown as relative percentage in the graph at the left. […] Tumor size was measure with a caliper at the indicated time points. […] The tumor size was measured with a caliper at the indicated time points. […]
The ratio of MSI1 expression in each group was presented in the graph. […] Hypoxia-induced apoptosis was withdrawn by the over-expression of wild-type MSI1 but not in mutant MSI1 groups determined by annexin V staining, MTT assay, and colony forming assay. […]
(In general: In western blotting, separated proteins are transferred to a membrane and probed.)

In data set [6] the target is T1, His-tagged AGO2 recombinant protein. Description: PepSpot high-throughput peptide tiling array. The conditions noted are these: 27 peptides of MSI1 C-terminus. The class given is binding. How it is done:
as §1
To rapidly screen the putative binding hotspots along the C-terminus of MSI1, we mimicked the epitope screening method by dotting the synthetic short peptides on nitrocellulose membrane and incubated with purified AGO2 protein^39. The C-terminus of MSI1 (201-262) was divided into 27 individual synthetic peptides with N-terminal amine attached on the nitrocellulose. Each peptide is 15 amino acids in length and has […] overlapping with the previous neighboring peptide (Suppl. Table IV). The purchased PepSpot membrane (JPT peptide technologies, Berlin, Germany) was firstly rinsed by methanol for 5 minutes, followed by Tris buffer saline supplemented with 0.1% Tween-20 (TBS-T) washing thrice. […]

No end group written: not given here.

T1 sequence (Q9UKV8 whole entry): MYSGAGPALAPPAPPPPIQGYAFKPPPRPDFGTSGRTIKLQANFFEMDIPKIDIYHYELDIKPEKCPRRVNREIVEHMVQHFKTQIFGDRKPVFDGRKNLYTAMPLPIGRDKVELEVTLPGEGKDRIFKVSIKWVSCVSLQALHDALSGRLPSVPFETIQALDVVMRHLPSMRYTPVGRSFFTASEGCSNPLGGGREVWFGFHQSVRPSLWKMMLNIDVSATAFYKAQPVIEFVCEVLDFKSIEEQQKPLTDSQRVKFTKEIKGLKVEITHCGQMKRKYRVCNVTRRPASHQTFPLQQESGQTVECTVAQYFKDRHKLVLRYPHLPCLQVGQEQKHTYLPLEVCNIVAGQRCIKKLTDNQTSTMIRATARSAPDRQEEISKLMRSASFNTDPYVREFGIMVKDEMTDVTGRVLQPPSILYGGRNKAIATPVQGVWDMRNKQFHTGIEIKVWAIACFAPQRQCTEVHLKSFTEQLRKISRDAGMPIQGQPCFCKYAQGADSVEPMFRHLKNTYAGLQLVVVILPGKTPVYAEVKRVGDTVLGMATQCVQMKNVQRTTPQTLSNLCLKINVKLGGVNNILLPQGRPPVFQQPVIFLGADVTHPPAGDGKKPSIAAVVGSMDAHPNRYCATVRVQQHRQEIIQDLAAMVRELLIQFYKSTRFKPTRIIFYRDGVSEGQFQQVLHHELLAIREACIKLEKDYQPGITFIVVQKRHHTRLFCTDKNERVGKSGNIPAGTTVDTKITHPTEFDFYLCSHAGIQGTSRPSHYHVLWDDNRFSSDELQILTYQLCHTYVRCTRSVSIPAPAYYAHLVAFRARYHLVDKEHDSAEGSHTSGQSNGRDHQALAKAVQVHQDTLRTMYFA
T2 sequence (Q9UKV8 whole entry): as above
Protocol for in vitro: After 0.5, 1, 2, 4 and 6 hours, cell lysates were collected and the fluorescent intensity was detected by ELISA reader. N=3 at each time point. […] Cells were washed and observed under microscopy at the indicated time points. […] To facilitate comparison of intake and degradation dynamics, mean fluorescence values were normalized to stating fluorescence. All data represent three independent experiments.

For HSLGGPLIATAFTNGGRKKRRQRRRPPQ [TAT-26], the “effect of MSI1/AGO2 binding on downstream mRNA” value in data set [1] is listed as “reversed”. Further, the Kd in data set [2] is 4.63 µM. In addition, the “effect on bioluminescent signal of split Gaussia luciferase” value at MSI1/AGO2 interaction [3] is “dramatically turned down the bioluminescent signal in vitro and in vivo”. The “time to significant cellular uptake” value in the data set on 05 MG cells (05 MG cells) is “within one hour”. Besides, in the data set on 05 MG cells (read-out: half-uptake concentration (EC50), fluorescein labeled peptides, 05 MG cell line), the EC50 was 9.02 µM. In addition, the “effect on MSI1/AGO2 interaction (co-IP immunoblot)” value on MSI1/AGO2 interaction [4] is listed as “effectively abrogated the MSI1/AGO2 interaction”. In “in vitro”, this molecule returned a half-life of no more than 4 h.

In the case of `CCC(=C/[C@H](C)C/C=C/C(C)=C/[C@@H](C)C(=O)[C@@H](C)[C@H](O)[C@@H](C)C/C(C)=C/C(=O)O)/C=C/[C@@H]1OC(=O)C=C[C@@H]1C` [Leptomycin B], the “MSI1 translocation into the cytosol” value in data set [5] is given as “strongly reduced MSI1 translocation into the cytosol”.

With HSLGGPLIATAFTNG [compound 26], in data set [6], the “binding of recombinant AGO2 to arrayed peptide” value was “preferentially bound”.

With YQFPEFRVERTPLPS [compound 11], the “binding of recombinant AGO2 to arrayed peptide” value in data set [6] is given as “preferentially bound”.
